Laboratory results published in article PMC9154192 (PLoS Biology, 2022).
≈ marks a conversion by molar mass, not a printed value.

Assays:
A549 cell line = details: cited from earlier work
M. tuberculosis H37Rv = experiment: microbe, parasite or virus in culture; assay type: cell-based, Mycobacterium tuberculosis; details: for SI (CC50/MIC): ratio of CC50 for L929 fibroblasts to MIC for strain H37Rv
M. tuberculosis H37Ra = experiment: microbe, parasite or virus in culture; assay type: cell-based, Mycobacterium tuberculosis
L929 murine fibroblasts = experiment: in vitro; assay type: cell-based; details: L929, MTT assay (Table S1)
Description: (§1) A549 human pulmonary epithelial cells (KCLB 10185), human embryonic kidney (HEK) 293 cells (KCLB 21573), human THP-1 leukemia cells (KCLB 40202), human neuroblastoma SH-SY5Y cells (KCLB 22266), Murine Raw 264.7 macrophages (KCLB 40071), and L929 murine fibroblasts (KCLB 10001) were purchased from the KCLB (Seoul, Korea). Cytotoxicity testing was performed using the MTT assay and the WST-1 cell viability assay as previously described.

[1] = system: Murine Raw 264.7 macrophages; experiment: in vitro; assay type: cell-based; details: RAW, MTT assay (Table S1)
Description: as §1

Row | SMILES | CC50 (A549 cell line) [µg/mL] | MIC (M. tuberculosis H37Rv) [µg/mL] | SI (CC50/MIC) (M. tuberculosis H37Rv) | MIC (M. tuberculosis H37Ra) [µg/mL] | CC50 (L929 murine fibroblasts) [µg/mL] | CC50 [1] [µg/mL]
1 | COc1ccc2c3c(c4cc(OC)c(OC)cc4c2c1)CN1CCC[C@H]1C3 [DPG, deoxypergularinine] | 18.7 (≈ 51.5 µM) | – | – | – | – | –
2 | CCCCOc1ccc(/C=C(/C(=O)O)c2ccc(OC)c(OC)c2)cc1 [DPGA8] | – | >100 | <0.9 | >100 | 89.5 (≈ 251 µM) | >100
3 | CCCCOc1ccc(/C=C(/C(=O)OC)c2ccc(OC)c(OC)c2)cc1 [DPGA9] | – | 25 (≈ 67.5 µM) | >4.0 | 25 (≈ 67.5 µM) | >100 | >100
4 | COC(=O)/C(=C/c1ccc(OCc2ccccc2)cc1)c1ccc(OC)c(OC)c1 [DPGA3] | – | 3.1 (≈ 7.66 µM) | >32.2 | 3.1 (≈ 7.66 µM) | >100 | >100
